Measurements as given in ChEMBL document CHEMBL1125989, “Preparation and evaluation of optically active 4,4-difluorothreonine as a potent novel antitumor material” (Bioorg Med Chem Lett, 1991).
In brackets after ≈: the same amount, converted by molar mass.

Legend:
CCRF-CEM = assay: Concentration at 50 percent inhibition of cell growth against human leukemia CCRF CEM cell line in vitro; assay type: functional, cell-based
L1210 [1] = assay: Tested for the effect of stereochemistry on the growth of L1210 mouse leukemia cell line in vitro; assay type: functional, cell-based
KB = assay: Concentration at 50 percent inhibition of cell growth against human cancer KB cell line in vitro; assay type: functional, cell-based
L1210 [2] = assay: Concentration at 50 percent inhibition of cell growth against mouse leukemia 1210 cell line in vitro; assay type: functional, cell-based
PC10 [3] = assay: Concentration at 50 percent inhibition of cell growth against human […] cell line in vitro; assay type: functional, cell-based
PC10 [4] = assay: Concentration at 50 percent inhibition of cell growth against human cancer PC10 cell line in vitro; assay type: functional, cell-based
Mus musculus [5] = assay: Tested for body weight of CDF1 mice bearing P388 leukemia at dose of 100 mg/kg/day on day 1; assay type: functional
Mus musculus [6] = assay: Tested for body weight of CDF1 mice bearing P388 leukemia at dose of 100 mg/kg/day on day 5; assay type: functional
Mus musculus [7] = assay: Tested for body weight of CDF1 mice bearing P388 leukemia at dose of 20 mg/kg/day on day 1; assay type: functional
Mus musculus [8] = assay: Tested for body weight of CDF1 mice bearing P388 leukemia at dose of 20 mg/kg/day on day 5; assay type: functional
Mus musculus [9] = assay: Tested for body weight of CDF1 mice bearing P388 leukemia at dose of 250 mg/kg/day on day 1; assay type: functional
Mus musculus [10] = assay: Tested for body weight of CDF1 mice bearing P388 leukemia at dose of 250 mg/kg/day on day 5; assay type: functional
Mus musculus [11] = assay: Tested for mean survival time of tested group to that of mean survival time of control group of mice bearing P388 leukemia at dose of 100 mg/kg/day; assay type: functional
Mus musculus [12] = assay: Tested for mean survival time of tested group to that of mean survival time of control group of mice bearing P388 leukemia at dose of 20 mg/kg/day; assay type: functional
Mus musculus [13] = assay: Tested for mean survival time of tested group to that of mean survival time of control group of mice bearing P388 leukemia at dose of 250 mg/kg/day; assay type: functional

## NC(C(=O)O)C(O)C(F)F (racemic)
CCRF-CEM
  IC50: 1.7 µg/mL (≈ 11 µM)
L1210 [1]
  IC50: 3.3 µg/mL (≈ 21.3 µM)
KB
  IC50: 2.7 µg/mL (≈ 17.4 µM)
L1210 [2]
  IC50: 1.1 µg/mL (≈ 7.09 µM)
PC10 [3]
  IC50: 5.1 µg/mL (≈ 32.9 µM)

## O=c1[nH]cc(F)c(=O)[nH]1 [FLUOROURACIL]
CCRF-CEM
  IC50: 0.95 µg/mL (≈ 7.3 µM)
KB
  IC50: 12.1 µg/mL (≈ 93 µM)
L1210 [2]
  IC50: 0.36 µg/mL (≈ 2.77 µM)
PC10 [4]
  IC50: 42 µg/mL (≈ 323 µM)

## C[C@@H](O)[C@@H](N)C(=O)O [D-allothreonine]
L1210 [1]
  IC50: > 100 µg/mL

## C[C@H](O)[C@H](N)C(=O)O
L1210 [1]
  IC50: 2.8 µg/mL (≈ 23.5 µM)
Mus musculus [5]
  Body weight: 21.3 g
Mus musculus [6]
  Body weight: 21.7 g
Mus musculus [7]
  Body weight: 22 g
Mus musculus [8]
  Body weight: 22 g
Mus musculus [9]
  Body weight: 22.7 g
Mus musculus [10]
  Body weight: 22 g
Mus musculus [11]
  T/C: 122%
Mus musculus [12]
  T/C: 114%
Mus musculus [13]
  T/C: 170%
